According to US11820745B2, “PKC-activating compounds for the treatment of neurodegenerative diseases” (Synaptogenix, Inc., priority 2008, dated 2023):

Assays:
PKCε = target: T1, PKCε (Homo sapiens, UniProt Q02156); experiment: Protein kinase C assay, purified/recombinant PKC epsilon (32P incorporation into histones); type: biochemical
T1 construct: purchased Calbiochem
T1 sequence (Q02156 1-737): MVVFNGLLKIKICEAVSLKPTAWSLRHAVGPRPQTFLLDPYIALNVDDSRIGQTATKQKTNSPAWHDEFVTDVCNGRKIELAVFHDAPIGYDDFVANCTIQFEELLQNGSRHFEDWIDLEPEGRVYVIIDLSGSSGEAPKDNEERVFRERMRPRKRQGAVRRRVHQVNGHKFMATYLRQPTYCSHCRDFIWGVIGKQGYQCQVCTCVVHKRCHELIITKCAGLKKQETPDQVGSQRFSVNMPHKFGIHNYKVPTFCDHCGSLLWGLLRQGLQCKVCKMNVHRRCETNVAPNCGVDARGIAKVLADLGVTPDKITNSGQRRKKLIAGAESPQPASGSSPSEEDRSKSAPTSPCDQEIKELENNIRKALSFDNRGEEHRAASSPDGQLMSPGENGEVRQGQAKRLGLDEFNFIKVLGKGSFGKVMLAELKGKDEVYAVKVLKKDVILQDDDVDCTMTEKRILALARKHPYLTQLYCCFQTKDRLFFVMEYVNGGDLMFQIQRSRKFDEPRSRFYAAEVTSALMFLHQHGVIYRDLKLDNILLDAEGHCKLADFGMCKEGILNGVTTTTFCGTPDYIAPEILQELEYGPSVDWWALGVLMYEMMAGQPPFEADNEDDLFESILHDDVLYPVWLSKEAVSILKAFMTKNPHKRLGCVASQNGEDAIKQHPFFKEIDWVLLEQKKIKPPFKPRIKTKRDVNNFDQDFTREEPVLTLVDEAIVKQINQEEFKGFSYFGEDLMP
Experimental: Protein kinase C assay. Recombinant PKC (1 ng of alpha or epsilon isofonn) was mixed with the BR-101 (UCP-LA) in the presence of 10 micromoiar histones, 5 mM CaCl2, 1.2 μg/μl phosphatidyl-L-serine, 0.18 μg/μl 1,2-dioctanoyl-sn-glycerol (DAG), […], […] (pH 7.4), 0.8 tnIVI EDTA, 4 mM EGTA, 4% glycerol, 8 μg/ml aprotinin, 8 μ/ml leupeptin, and 2 mM benzamidine. 0.5 micro Ci [^y32P]ATP was added. The incubation mixture was incubated for 15 min at 37 degrees in a total volume of 10 microliters. The reaction was stopped by spotting the reaction mixtures on 1×2 cm strips of cellulose phosphate paper (Whatman P81) and immediately washing twice for 1 hr in 0.5% H3PO4. The cellulose phosphate strips were counted in a scintillation counter. In some experiments, phosphatidylserine, diacylglycerol, and/or calcium were removed.
Protein kinase C assay. Rat hippocampal cells were cultured and scraped in 0.2 ml homogenization buffer (20 triM Tris-HCl, pH 7.4, 50 mM NaF, 1 μg/ml leupeptin, and 0.1 mM PMSF) and homogenized by sonication in a Marsonix micro-probe sonicator (5 see, 10W). To measure PKC, 10 ul of cell homogenate or purified. PKC isozyme (purchased from Calbiochem) was incubated for 15 min at 37° C. in the presence of 10 μM histones, 4.89 mM CaCl2, 1.2 μg/μl phosphatidyl-L-serine, 0.18 μg/μl 1,2-dioctanoyl-sn-glycerol, 10 mM MgCl2, 20 mM HEPES (pH 7.4), 0.8 mM EDTA, 4 mM EGTA, 4% glycerol, 8 μg/ml aprotinin, 8 μg/ml leupeptin, and 2 mM benzamidine. 0.5 μCi [^γ-32P]ATP was added and ^32P-phosphoprotein formation was measured by adsorption onto phosphocellulose as described previously. Nelson and Alkon, J. Neurochemistry. 1995; 65: 2350-57. For measurements of activation by BR-101 (DCP-LA) and similar compounds, PKC activity was measured in the absence of diacylglycerol and phosphatidyl serine, as described by Kanno et al., and PKC δ, ε, η, and μ were measured in the absence of added EGTA and CaCl2, as described by Kanno et al., J. Lipid Res. 2006; 47: 1146-50. Low concentrations of Ca^2+ are used because high Ca^2+ interacts with the PKC phosphatidylserine binding site and prevents activation. For measurements of bryostatin activation, 1,2-diacylglycerol was omitted unless otherwise stated.
To determine their PKC isozyme specificity, the new compounds were preincubated with purified PKC for five minutes and the PKC activity was measured radiometrically.

Aβ = Aβ levels in N2a neuroblastoma cells transfected with human APPSwe/PSID (Aβ1-42 ELISA); type: cell-based, mouse; details: for levels of intracellular Aβ / levels of secreted Aβ: 24 h incubation, various concentrations; for levels of intracellular Aβ: FIG. 7a; for levels of secreted Aβ: FIG. 7b; for concentration dependence of Aβ inhibition: BR-101 and BR-111 up to 10 to 100 μM
Experimental: Cell culture. Rat hippocampal H19-71GF-IR cells (ATCC, Manassas, Va.) were plated onto poly-L-lysine coated plates and grown at 35° C. in DMEM/10% FCS for several days until about 50% coverage was obtained. The cells were then induced to differentiate into a neuronal phenotype by replacing the medium with 5 ml N2 medium containing 10 ng/ml basic fibroblast growth factor at 39° C. and grown in T-75 flasks at 37° C. Human SH-SY5Y neuroblastoma cells (ATCC) were cultured in 45% F12K/45% MEM/10% FCS. Mouse N2A neuroblastoma cells were cultured in DMEM/10% FCS without glutamine. Rat hippocampal neurons from 18-day-old embryonic
AB Measurement and Cell Viability Assay. Aβ was measured using an Aβ1-42 human fluorimetric ELISA kit (Invitrogen) according to the manufacturer's instructions. Results were measured in a Biotek Synergy HT microplate reader. AlamarBlue and CyQuant NF (Invitrogen) according to the manufacturer's instructions.
To measure the effects of PKCε activation on Aβ production, we used mouse neuro2a (N2a) neuroblastoma cells transfected with human APPSwe/PSID, which produce large quantities of Aβ. Petanceska et al., J Neurochem. 1996; 74: 1878-84. […] With bryostatin, which activates PKC by binding to the diacylglycerol-binding site, the inhibition was biphasic, with concentrations of 20 nM or higher producing no net effect. This may be explained by the ability of this class of PKC activators to downregulate PKC when used at high concentrations.

TACE = TACE assay in N2a mouse neuroblastoma cells; type: cell-based; details: FIG. 9a
Experimental: TACE Assay. TACE was measured by incubating 5 μl cell homogenate, 3 μl buffer (50 mM Tris-HCl 7.4 plus 25 mM NaCl plus 4% glycerol), and 1 of 100 μM TACE substrate IV (Aβz-LAQAVRSSSR-DPa) (Calbiochem) for 20 min at 37° in 1.5-ml polypropylene centrifuge tubes (Jin et al., Anal Biochem. 2002; 302: 269-75). The reaction was stopped by cooling to 4° C. The samples were diluted to 1 ml and the fluorescence was rapidly measured (ex=320 nm, em=420 nm) in a Spex Fluorolog 2 spectrofluorometer.

| SMILES | activation of purified PKCε (PKCε; FIG. 3) | concentration needed to activate PKC, times lower than for BR-101 (DCP-LA) (PKCε; FIG. 3) | levels of intracellular Aβ (Aβ) | levels of secreted Aβ (Aβ) | concentration dependence of Aβ inhibition (Aβ) | TACE activity (TACE) | activation of PKCε (PKCε; at 10 μM, preincubated with purified PKC for five minutes) | activation of PKCε (PKCε; purified PKCε, lowest concentration tested (10 nM), FIG. 2) |
| --- | --- | --- | --- | --- | --- | --- | --- | --- |
| CCC1CC1CC1CC1CC1CC1CC1CC1CC1CC1CC1CC1CCC(=O)OC (stereo not drawn) [BR-111, methyl-3-(2-((2-((2-((2-((2-((2-ethylcyclopropyl)methyl)cyclopropyl)methyl)cyclopropyl)methyl)-cyclopropyl)methyl)cyclopropyl)methyl)cyclopropyl)propanoate] | activated purified PKCε to a similar extent | approx. 100 times | markedly reduced | markedly reduced | monotonically increasing inhibition | small increases |  |  |
| CCCCCC1CC1CC1CC1CCCCCCCC(=O)O (stereo not drawn) [BR-101, 8-[2-(2-pentyl-cyclopropylmethyl)-cyclopropyl]-octanoic acid] |  |  | markedly reduced | markedly reduced | monotonically increasing inhibition | small increases | effective activator | 2.75 fold |
